{"source": "patent US20020119496A1", "about": "“Nuclear magnetic resonance screening method” (priority 2000, published 2002)", "target": "T1, human muscle fatty acid binding protein M-FABP (Homo sapiens, UniProt P05413)", "T1 construct": "a plasmid containing the gene coding for a 143 amino acid protein construct of M-FABP; His-tag (C); made in house; host or cells: prototrophic Escherichia coli", "T1 sequence (P05413 whole entry)": "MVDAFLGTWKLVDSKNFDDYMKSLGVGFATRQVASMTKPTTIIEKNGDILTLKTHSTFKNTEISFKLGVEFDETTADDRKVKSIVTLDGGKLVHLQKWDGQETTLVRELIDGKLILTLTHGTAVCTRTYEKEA", "test": "Site-selective NMR screening, 1H-15N fHSQC of 13C'-Val, 15N-Ala labeled M-FABP", "conditions": "1:1 mixture with M-FABP, 200 μM protein", "protocol": "The spectra were recorded at 20° C. on a 600 MHz Varian Unity INOVA NMR spectrometer using standard techniques. The sample was prepared in 20 mM sodium phosphate buffer (10% D2O/90% H2O) pH 7.4 containing 50 mM NaCl, 10 mM DTT and 0.02% NaN3. […] (a) 2D ^1H-^15N fast-HSQC (Mori et al., 1995), (b) 2D HNCO and (c) 1D HNCO. […] Experimental times were 1 hour, 4 hours, and 20 minutes respectively.\nExperimental conditions were identical to those described in FIG. 8 except the samples used for spectra b-d contained additionally 1% d-DMSO. (a-d) Reference spectrum of free M-FABP. (b) 1:1 mixture of M-FABP and compound cocktail. (c) 1:1 mixture M-FABP and compound cocktail omitting oleic acid. (d) 1:1 mixture of M-FABP and oleic acid."}
{"smiles": "CCCCCCCC/C=C\\CCCCCCCC(=O)O", "note": "[oleic acid]", "values": [{"measurement": "chemical shift change of alanine 33 HSQC cross peak", "value": "chemical shift change is observed"}]}
